Reference: patent US9539312B2 (UNIVERSIDAD NACIONAL AUTÓNOMA DE MÉXICO, priority 2012, dated 2017)
Like-named read-outs stand apart in the source and are kept apart here. Where no end group is shown, it is not given here.

What was measured:
[1] = target: C-terminus peptide of CETP (Homo sapiens, UniProt P11597)
[2] = phase III, treatment group receiving combination with atorvastatin; cited from earlier work
[3] = pH 9.5
[4] = phase II, cited from earlier work
CETP = target: T1, CETP (Homo sapiens, UniProt P11597); conditions: phase II, group with the highest dose; cited from earlier work
T1 construct: host or cells: trial subjects' plasma (not described)
T1 sequence (P11597 18-493): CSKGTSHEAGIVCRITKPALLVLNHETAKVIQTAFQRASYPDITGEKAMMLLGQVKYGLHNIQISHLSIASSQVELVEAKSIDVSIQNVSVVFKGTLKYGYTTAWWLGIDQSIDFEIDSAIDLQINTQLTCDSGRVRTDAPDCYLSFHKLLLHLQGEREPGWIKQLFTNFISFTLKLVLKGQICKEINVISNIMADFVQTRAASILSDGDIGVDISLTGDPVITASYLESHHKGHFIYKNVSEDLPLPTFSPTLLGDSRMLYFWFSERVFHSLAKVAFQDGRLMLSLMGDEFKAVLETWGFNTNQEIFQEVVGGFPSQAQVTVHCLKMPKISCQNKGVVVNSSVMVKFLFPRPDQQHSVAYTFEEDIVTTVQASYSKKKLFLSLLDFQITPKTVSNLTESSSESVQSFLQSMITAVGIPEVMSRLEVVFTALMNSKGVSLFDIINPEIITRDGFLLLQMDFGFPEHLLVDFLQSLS

[5] = target: 10 nm-diameter nascent discoid HDL particles; conditions: cited from earlier work

CCCCCCCCCCCC(=O)OC[C@@H](O)COP(=O)([O-])OCC[N+](C)(C)C [lysophosphatidylcholine (C12), 1-Lauril-2-Hydroxi-snglycero 3 phosphocholine]
secondary structure of the antigen peptide [1]: favored the presentation of the α-helix structure

CCOC(=O)N1c2ccc(C(F)(F)F)cc2[C@@H](N(Cc2cc(C(F)(F)F)cc(C(F)(F)F)c2)C(=O)OC)C[C@H]1CC [Torcetrapib]
mortality and cardiovascular events [2]: cases of mortality and cardiovascular events

CHLLVDFLQSLS [Y-helix]
solubility and monomeric state of peptide [3]: allows solubility and keeps the peptide in monomeric state

COc1cc(F)c(C(C)C)cc1-c1ccc(C(F)(F)F)cc1CN1C(=O)O[C@H](c2cc(C(F)(F)F)cc(C(F)(F)F)c2)[C@@H]1C [Anacetrapib]
blood pressure ([4]; all cohorts): without the corresponding increase in blood pressure | increase in HDL, average ([4]; dose 10 mg): 44% | increase in HDL, average ([4]; dose 40 mg): 86% | increase in HDL, average ([4]; dose 150 mg): 139% | increase in HDL, average ([4]; dose 300 mg): 133%

CCC(CC)CC1(C(=O)Nc2ccccc2SC(=O)C(C)C)CCCCC1 [Dalcetrapib]
CETP activity decreased (CETP): 36% | HDL cholesterol increased (CETP): 34%

B1: CETP: proatherogenic hydrophobic glycoprotein that transfers cholesteryl esters and triglycerides among lipoproteins (protein, UniProt P11597 18-493, looked up)
Cholesteryl ester transfer …: CSKGTSHEAGIVCRITKPALLVLNHETAKVIQTAFQRASYPDITGEKAMMLLGQVKYGLHNIQISHLSIASSQVELVEAKSIDVSIQNVSVVFKGTLKYGYTTAWWLGIDQSIDFEIDSAIDLQINTQLTCDSGRVRTDAPDCYLSFHKLLLHLQGEREPGWIKQLFTNFISFTLKLVLKGQICKEINVISNIMADFVQTRAASILSDGDIGVDISLTGDPVITASYLESHHKGHFIYKNVSEDLPLPTFSPTLLGDSRMLYFWFSERVFHSLAKVAFQDGRLMLSLMGDEFKAVLETWGFNTNQEIFQEVVGGFPSQAQVTVHCLKMPKISCQNKGVVVNSSVMVKFLFPRPDQQHSVAYTFEEDIVTTVQASYSKKKLFLSLLDFQITPKTVSNLTESSSESVQSFLQSMITAVGIPEVMSRLEVVFTALMNSKGVSLFDIINPEIITRDGFLLLQMDFGFPEHLLVDFLQSLS
Kd [5]: 20 to 120 nM
